Test system: A375 multi-cell spheroids with HUVEC/MSC, viability
Experiment: Anticancer human tumor A375 cell line growth inhibition [GQUAD];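 further: spheroids exposed to compounds for seven days before readout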
Details: for IC50: curve of first compound; for viability, T/C: stronger effect = lower value
Outline: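 Tumor cells were grown as complex spheroids with HUVEC endothelial cells and mesenchymal stem cells as stroma. G-quadruplex stabilizers were combined with targeted agents over half-log dilutions from near the clinical Cmax, or from 10 microM.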

[1] = second compound 0.0316 µM, first compound 0.0316 µM
[2] = second compound 0.0316 µM, first compound 0.316 µM
[3] = second compound 0.1 µM, first compound 0.0316 µM
[4] = second compound 0.1 µM, first compound 0.316 µM
[5] = second compound 0.316 µM, first compound 0.0316 µM
[6] = second compound 0.316 µM, first compound 0.316 µM
[7] = second compound 1 µM, first compound 0.0316 µM
[8] = second compound 1 µM, first compound 0.316 µM
[9] = second compound 3.16 µM, first compound 0.0316 µM
[10] = second compound 3.16 µM, first compound 0.316 µM
[11] = second compound 10 µM, first compound 0.0316 µM
[12] = second compound 10 µM, first compound 0.316 µM
[13] = second compound 0.0316 µM, first compound 0.1 µM
[14] = second compound 0.0316 µM, first compound 1 µM
[15] = second compound 0.0316 µM, first compound 3.16 µM
[16] = second compound 0.0316 µM, first compound 10 µM
[17] = second compound 0.1 µM, first compound 0.1 µM
[18] = second compound 0.1 µM, first compound 1 µM
[19] = second compound 0.1 µM, first compound 3.16 µM
[20] = second compound 0.1 µM, first compound 10 µM
[21] = second compound 0.316 µM, first compound 0.1 µM
[22] = second compound 0.316 µM, first compound 1 µM
[23] = second compound 0.316 µM, first compound 3.16 µM
[24] = second compound 0.316 µM, first compound 10 µM
[25] = second compound 1 µM, first compound 0.1 µM
[26] = second compound 1 µM, first compound 1 µM
[27] = second compound 1 µM, first compound 3.16 µM
[28] = second compound 1 µM, first compound 10 µM
[29] = second compound 3.16 µM, first compound 0.1 µM
[30] = second compound 3.16 µM, first compound 1 µM
[31] = second compound 3.16 µM, first compound 3.16 µM
[32] = second compound 3.16 µM, first compound 10 µM
[33] = second compound 10 µM, first compound 0.1 µM
[34] = second compound 10 µM, first compound 1 µM
[35] = second compound 10 µM, first compound 3.16 µM
[36] = second compound 10 µM, first compound 10 µM

## CCc1c2c(nc3ccc(O)cc13)-c1cc3c(c(=O)n1C2)COC(=O)[C@]3(O)CC + Cc1cnc(CNC(=O)c2c(=O)c3ccc(N4CCCN(C)CC4)nc3n3c2sc2ccccc23)cn1
Second compound 0.0316 µM
  IC50: < 0.999 nM
Second compound 0.1 µM
  IC50: < 0.999 nM
Second compound 0.316 µM
  IC50: < 0.999 nM
Second compound 1 µM
  IC50: < 0.999 nM
Second compound 3.16 µM
  IC50: < 0.999 nM
Second compound 10 µM
  IC50: < 0.999 nM
Second compound 0.0316 µM, first compound 0.000999 µM
  viability, T/C: 33.5%
Second compound 0.0316 µM, first compound 0.00316 µM
  viability, T/C: 15.6%
Second compound 0.0316 µM, first compound 0.00999 µM
  viability, T/C: 15.1%
[1]
  viability, T/C: 13.5%
Second compound 0.0316 µM, first compound 0.0999 µM
  viability, T/C: 5.18%
[2]
  viability, T/C: 0.45%
Second compound 0.1 µM, first compound 0.000999 µM
  viability, T/C: 26.9%
Second compound 0.1 µM, first compound 0.00316 µM
  viability, T/C: 14.8%
Second compound 0.1 µM, first compound 0.00999 µM
  viability, T/C: 15.6%
[3]
  viability, T/C: 15.2%
Second compound 0.1 µM, first compound 0.0999 µM
  viability, T/C: 5.86%
[4]
  viability, T/C: 0.41%
Second compound 0.316 µM, first compound 0.000999 µM
  viability, T/C: 26.3%
Second compound 0.316 µM, first compound 0.00316 µM
  viability, T/C: 17.1%
Second compound 0.316 µM, first compound 0.00999 µM
  viability, T/C: 14.8%
[5]
  viability, T/C: 11.9%
Second compound 0.316 µM, first compound 0.0999 µM
  viability, T/C: 4.76%
[6]
  viability, T/C: 0.14%
Second compound 1 µM, first compound 0.000999 µM
  viability, T/C: 22%
Second compound 1 µM, first compound 0.00316 µM
  viability, T/C: 15.4%
Second compound 1 µM, first compound 0.00999 µM
  viability, T/C: 14.2%
[7]
  viability, T/C: 10.1%
Second compound 1 µM, first compound 0.0999 µM
  viability, T/C: 4.05%
[8]
  viability, T/C: 0.08%
Second compound 3.16 µM, first compound 0.000999 µM
  viability, T/C: 19.4%
Second compound 3.16 µM, first compound 0.00316 µM
  viability, T/C: 15.9%
Second compound 3.16 µM, first compound 0.00999 µM
  viability, T/C: 14.4%
[9]
  viability, T/C: 9.47%
Second compound 3.16 µM, first compound 0.0999 µM
  viability, T/C: 0.08%
[10]
  viability, T/C: 0.1%
Second compound 10 µM, first compound 0.000999 µM
  viability, T/C: 18.4%
Second compound 10 µM, first compound 0.00316 µM
  viability, T/C: 16%
Second compound 10 µM, first compound 0.00999 µM
  viability, T/C: 14.6%
[11]
  viability, T/C: 7.32%
Second compound 10 µM, first compound 0.0999 µM
  viability, T/C: 0.15%
[12]
  viability, T/C: 0.15%

## COc1cc(C2c3cc4c(cc3C(OC3OC5COC(C)OC5C(O)C3O)C3COC(=O)C23)OCO4)cc(OC)c1O (stereo unspecified) + Cc1cnc(CNC(=O)c2c(=O)c3ccc(N4CCCN(C)CC4)nc3n3c2sc2ccccc23)cn1
Second compound 0.0316 µM
  IC50: 656 nM
Second compound 0.1 µM
  IC50: 213 nM
Second compound 0.316 µM
  IC50: < 31.6 nM
Second compound 1 µM
  IC50: < 31.6 nM
Second compound 3.16 µM
  IC50: < 31.6 nM
Second compound 10 µM
  IC50: < 31.6 nM
[1]
  viability, T/C: 110%
[13]
  viability, T/C: 90.6%
[2]
  viability, T/C: 65.6%
[14]
  viability, T/C: 40.7%
[15]
  viability, T/C: 27.4%
[16]
  viability, T/C: 20.2%
[3]
  viability, T/C: 73.6%
[17]
  viability, T/C: 59.8%
[4]
  viability, T/C: 43.6%
[18]
  viability, T/C: 33.5%
[19]
  viability, T/C: 25.8%
[20]
  viability, T/C: 14.7%
[5]
  viability, T/C: 48.3%
[21]
  viability, T/C: 50.2%
[6]
  viability, T/C: 37.8%
[22]
  viability, T/C: 32.4%
[23]
  viability, T/C: 22.1%
[24]
  viability, T/C: 14.3%
[7]
  viability, T/C: 40.1%
[25]
  viability, T/C: 38.6%
[8]
  viability, T/C: 30.6%
[26]
  viability, T/C: 30.7%
[27]
  viability, T/C: 22.3%
[28]
  viability, T/C: 15.3%
[9]
  viability, T/C: 34%
[29]
  viability, T/C: 32.5%
[10]
  viability, T/C: 31%
[30]
  viability, T/C: 26%
[31]
  viability, T/C: 23.4%
[32]
  viability, T/C: 13.9%
[11]
  viability, T/C: 29.2%
[33]
  viability, T/C: 28.1%
[12]
  viability, T/C: 31.8%
[34]
  viability, T/C: 27.3%
[35]
  viability, T/C: 21%
[36]
  viability, T/C: 13.4%

## COc1cccc2c1C(=O)c1c(O)c3c(c(O)c1C2=O)CC(O)(C(=O)CO)CC3OC1CC(N)C(O)C(C)O1 (stereo unspecified) + Cc1cnc(CNC(=O)c2c(=O)c3ccc(N4CCCN(C)CC4)nc3n3c2sc2ccccc23)cn1
Second compound 0.0316 µM
  IC50: 168 nM
Second compound 0.1 µM
  IC50: 56.2 nM
Second compound 0.316 µM
  IC50: < 31.6 nM
Second compound 1 µM
  IC50: < 31.6 nM
Second compound 3.16 µM
  IC50: < 31.6 nM
Second compound 10 µM
  IC50: < 31.6 nM
[1]
  viability, T/C: 109%
[13]
  viability, T/C: 64.1%
[2]
  viability, T/C: 31.2%
[14]
  viability, T/C: 20.5%
[15]
  viability, T/C: 1.64%
[16]
  viability, T/C: 0.08%
[3]
  viability, T/C: 59.3%
[17]
  viability, T/C: 38.7%
[4]
  viability, T/C: 30.2%
[18]
  viability, T/C: 17.9%
[19]
  viability, T/C: 1%
[20]
  viability, T/C: 0.06%
[5]
  viability, T/C: 41.5%
[21]
  viability, T/C: 33.4%
[6]
  viability, T/C: 27.4%
[22]
  viability, T/C: 16.1%
[23]
  viability, T/C: 0.21%
[24]
  viability, T/C: 0.08%
[7]
  viability, T/C: 37.1%
[25]
  viability, T/C: 30.9%
[8]
  viability, T/C: 27.4%
[26]
  viability, T/C: 15.2%
[27]
  viability, T/C: 0.07%
[28]
  viability, T/C: 0.09%
[9]
  viability, T/C: 33%
[29]
  viability, T/C: 31.4%
[10]
  viability, T/C: 24.5%
[30]
  viability, T/C: 14.9%
[31]
  viability, T/C: 0.12%
[32]
  viability, T/C: 0.13%
[11]
  viability, T/C: 25.6%
[33]
  viability, T/C: 24.9%
[12]
  viability, T/C: 20.4%
[34]
  viability, T/C: 13.7%
[35]
  viability, T/C: 0.21%
[36]
  viability, T/C: 0.22%
